In patent US6740038B2, “Systems and methods for assessing vascular effects of a treatment” (New Health Sciences, Inc., priority 2000, dated 2004):

System: cerebral vessels
Details: person after first stroke, Plavix +/- calcium channel blocker
Experimental: A person with a history of hypertension experiences a first stroke in the left middle cerebral artery resulting in deficits in the right hand, leg, and some deficits in motor speech. These are the symptoms upon presentation in the neurological clinic. Transcranial Doppler analysis of all cerebral vessels is performed in addition to analyzing the common carotid artery and the internal carotid artery.
The physician considers prescription of Plavix together with a calcium channel blocker. Transcranial Doppler analysis was performed at monthly intervals. […] The physician subsequently administers a higher dose. Again, transcranial Doppler analysis is performed on all cerebral vessels.
The patient is then monitored on a monthly basis after the initial prescription of Plavix in order to determine whether vascular changes are occurring which necessitate alteration in the therapy.

In the case of COC(=O)[C@H](c1ccccc1Cl)N1CCc2sccc2C1 [Plavix], the auto-regulation curve (higher dose) was “left-shifts toward normal”, the pulsatility index (higher dose) was “decreases” and the “vascular dynamics of the vessel studied” value (higher dose) was “marked changes”. For the same compound, the “changes in the individual cerebral vessels” value (initial dose, transcranial Doppler at monthly intervals) was “no effect”.
